From US6117845A, “C-linked analogs of N-(4-hydroxyphenyl) retinamide” (Ohio State University Research Foundation, priority 1999, dated 2000)

What was measured:
[1] = system: MCF7 cells; assay: Assay for cell growth inhibition, MCF-7 cells, 72 h; type: cell-based; conditions: human mammary carcinoma MCF-7 cells, 0.1, 1 or 10 μM, FIG. 1
Procedure: (§1) All-trans retinoic acid (atRA) was purchased from Eastman Kodak, Rochester, N.Y. Stock solutions were prepared in 100% ethanol and concentrations were determined on a Shimadzu UV-2100 spectrophotometer (4-HBR: λmax=380nm, ε=39,891; 4-HPR: λmax=365 nm, ε=47,900; atRA: λmax=340 nm, ε=45,300). Compound purity was assessed using a Waters HPLC-PDA with a 600E solvent delivery system using a Zorbax ODS, 250×4.6 mm, 5 micron column (Phenomenex, Torrance, Calif.). The column was equilibrated in 88% methanol/water with 10 mM ammonium acetate (flow rate of 1 ml/min). 4-HBR eluted at about 18 min., 4-HPR at about 12 min., and atRA at about 8 min with estimated purities of 96%, 100% and 100% respectively. […]
(§2) Cells (100,000 cells) were passed into a 25 cm^3 flask in 10 ml of medium. […] Two 20 μl aliquots were counted from each treatment group on a Nikon Diaphot 200 fluorescent microscope. Four out of five fields were counted on each side of the hemocytometer. Fluorescence was used to count the number of live cells and phase-contrast was used to count the number of total cells. The average number of live cells per field was divided by the total number of cells per field and expressed as a percentage of the control.
The antiproliferative activity of 4-HPR, 4-HBR, and atRA against MCF-7 human mammary tumor cell culture models was determined using the above-described protocol. […]

[2] = system: LA1-15n cells; assay: Assay for cell growth inhibition, LA1-15n cells, 48 h; type: cell-based; conditions: human neuroblastoma LA1-15n cells, 0.1, 1 or 10 μM, FIG. 2
Procedure: as §1, with “respectively. Retinoids were blanketed with argon and stored at -70° C. until use.” for “respectively.”
as §2, with “control. […]” for “control.”

[3] = Acid stability of 4-HBR; type: physicochemical; conditions: 0.1 N methanolic HCl at 37° C. for 2 hours
[4] = system: serum retinol-binding protein (RBP); assay: Serum retinol binding protein binding study (competition with tritiated all-trans retinol); conditions: human RBP 0.1 μg/μl, 250 nM all-trans-(3H)-ROL, 4° C., FIG. 3
Procedure: RBP (human) was obtained commercially (Sigma). RBP (0.1 μg/μl) was incubated with 250 nM all-trans-(^3 H)-ROL (approx. 5 Ci/mmole) with and without competing ligands at 4° C. for 3 hours. Tritiated retinoid-labeled protein-containing extracts were treated with dextran-coated charcoal to remove unbound ligand before subjecting samples to sedimentation analysis on 5 to 20% sucrose density gradients. ^14 C-Labeled proteins were included with samples as internal sedimentation standards. Gradients were centrifuged at 257,000 g for 20 hours at 4° C. followed by fractionation and analysis of radioactivity.

SMILES: CC1=C(/C=C/C(C)=C/C=C/C(C)=C/C(=O)Cc2ccc(O)cc2)C(C)(C)CCC1 [compound 16, 4-hydroxybenzyl retinone]
- growth inhibition of MCF7 cells (viability, live cells as percentage of control) [1]: inhibits the growth of MCF7 cells in a dose-dependant fashion
- growth inhibition of LA1-15n cells (viability, live cells as percentage of control) [2]: inhibits the growth of LA1-15n cells in a dose-dependant fashion
- stability under acidic conditions [3]: remained intact
- affinity for serum RBP relative to 4-HPR [4]: binds to serum RBP with less affinity than does 4-HPR
